Where two headings read alike, the source gives them in different places.
How the values were obtained:
[1] = partition coefficient between organic fluid and water, from solubility ratio
Description: [formula] where m is the rate at which drug is transported across the membrane (g/sec), Vp is the volume of the permeate solution (cm^3), [D]p is the concentration of drug in the permeate solution (g/cm^3), t is the time (sec), am is the membrane area (cm^2), Pov is the overall permeability coefficient (cm/sec), [Ddissolved]f is the concentration of dissolved drug in the feed solution (g/cm^3), and kp,mem is the partition coefficient of drug between the organic fluid and water, which is defined as the ratio of (1) the concentration of drug in the organic fluid, and (2) the concentration of dissolved neutral drug in the aqueous feed solution when the two solutions are at equilibrium. The partition coefficient can be estimated from the ratio of (1) the solubility of drug in the organic fluid and (2) the solubility of the dissolved drug in the aqueous feed solution.
The organic fluid consisted of 4 mL of decanol, which was added to the permeate reservoir. […] An overhead stirrer was used to stir the decanol permeate solution at 100 rpm.
The organic fluid used in these tests consisted of 5 mL of 20 wt % decanol in decane.

[2] = not told, 120 μg/mL

SMILES | partition coefficient between the organic fluid and water [1] | Maximum Flux of Drug 3 [2] [μg/cm^2-min] | solubility (physchem; organic solvent or mixture, solubility in organic fluid) [mg/mL] | solubility (physchem; water, aqueous solubility (solubility in water)) [mg/mL] | partition coefficient between the organic fluid and water ([1]; 20 wt % decanol in decane / water)
O=C(N[C@@H](Cc1ccccc1)[C@@H](O)C(=O)N1C[C@@H](O)[C@@H](O)C1)c1cc2cc(Cl)ccc2[nH]1 [Drug 2, 5-chloro-1H-indole-2-carboxylic acid [(1S)-benzyl-(2R)-hydroxy-3-((3R,4S)-dihydroxy-pyrrolidin-1-yl-)-3-oxypropyl]amide] | about 12 | – | – | – | –
CC[C@@H]1C[C@H](N(Cc2cc(C(F)(F)F)cc(C(F)(F)F)c2)C(C)=O)c2cc(C(F)(F)F)ccc2N1C(=O)OC(C)C [Drug 3, [2R,4S]4-[acetyl-(3,5-bis-trifluoromethyl-benzyl)-amino]-2-ethyl-6-trifluoromethyl-3,4-dihydro-2H-quinoline-1-carboxylic acid isopropyl ester] | – | 0.06 | > 25 | < 0.0001 | greater than 250,000

Source: patent US7611630B2, “Method and device for evaluation of pharmaceutical compositions” (Bend Research, Inc., priority 2004, dated 2009)
